In the supplement of paper PMC10307832:

Tests used:
Experiment in all cases: relative viability (nuclei count vs DMSO), 5 days (fraction); higher = more cells survive
AGI-6780 + Alpelisib = compound: O=C(Nc1cccc(C(F)(F)F)c1)Nc1cc(S(=O)(=O)NC2CC2)ccc1-c1ccsc1 [AGI-6780] + Cc1nc(NC(=O)N2CCC[C@H]2C(N)=O)sc1-c1ccnc(C(C)(C)C(F)(F)F)c1 [Alpelisib] (partner 2 µM)
Procedure, shortened: (§1)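 For relative viability, nuclei counts in treated wells were divided by those in vehicle wells. Lung cancer cell lines had been pin-tool dosed in 1536-well plates the day after seeding and cultured for 5 days, then fixed and stained in one step (final 0.05% Triton X-100, 1% formaldehyde, 1 ug/ml Hoechst) and imaged at 4×. Doses were one drug alone or a fixed anchor-drug dose plus five library-drug doses (not always all listed) in √10 steps, and values are duplicate-plate medians.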

AGI-6780 + Luminespib = compound: O=C(Nc1cccc(C(F)(F)F)c1)Nc1cc(S(=O)(=O)NC2CC2)ccc1-c1ccsc1 [AGI-6780] + CCNC(=O)c1noc(-c2cc(C(C)C)c(O)cc2O)c1-c1ccc(CN2CCOCC2)cc1 [Luminespib] (partner 0.01 µM)
Procedure, shortened: as §1

AGI-6780 + Tozasertib = compound: O=C(Nc1cccc(C(F)(F)F)c1)Nc1cc(S(=O)(=O)NC2CC2)ccc1-c1ccsc1 [AGI-6780] + Cc1cc(Nc2cc(N3CCN(C)CC3)nc(Sc3ccc(NC(=O)C4CC4)cc3)n2)n[nH]1 [Tozasertib] (partner 0.1 µM)
Procedure, shortened: as §1

AGI-6780 + Dasatinib = compound: O=C(Nc1cccc(C(F)(F)F)c1)Nc1cc(S(=O)(=O)NC2CC2)ccc1-c1ccsc1 [AGI-6780] + Cc1nc(Nc2ncc(C(=O)Nc3c(C)cccc3Cl)s2)cc(N2CCN(CCO)CC2)n1 [Dasatinib] (partner 0.075 µM)
Procedure, shortened: as §1

| Cell Line | relative viability (AGI-6780 + Alpelisib; first compound 0.08 µM) | relative viability (AGI-6780 + Alpelisib; first compound 0.253 µM) | relative viability (AGI-6780 + Alpelisib; first compound 0.8 µM) | relative viability (AGI-6780 + Alpelisib; first compound 8 µM) | relative viability (AGI-6780 + Luminespib; first compound 0.08 µM) | relative viability (AGI-6780 + Luminespib; first compound 0.253 µM) | relative viability (AGI-6780 + Luminespib; first compound 0.8 µM) | relative viability (AGI-6780 + Luminespib; first compound 2.53 µM) | relative viability (AGI-6780 + Luminespib; first compound 8 µM) | relative viability (AGI-6780 + Tozasertib; first compound 0.08 µM) | relative viability (AGI-6780 + Tozasertib; first compound 0.253 µM) | relative viability (AGI-6780 + Tozasertib; first compound 0.8 µM) | relative viability (AGI-6780 + Tozasertib; first compound 2.53 µM) | relative viability (AGI-6780 + Tozasertib; first compound 8 µM) | relative viability (AGI-6780 + Dasatinib; first compound 0.08 µM) | relative viability (AGI-6780 + Dasatinib; first compound 0.253 µM) | relative viability (AGI-6780 + Dasatinib; first compound 0.8 µM) | relative viability (AGI-6780 + Dasatinib; first compound 2.53 µM) | relative viability (AGI-6780 + Dasatinib; first compound 8 µM) | relative viability (AGI-6780 + Alpelisib; first compound 2.53 µM) |
| --- | --- | --- | --- | --- | --- | --- | --- | --- | --- | --- | --- | --- | --- | --- | --- | --- | --- | --- | --- | --- |
| NCI-H1395 | 1.14 | 1.15 | 1.23 | 0.969 | 1.02 | 0.78 | 0.73 | 0.646 | 0.615 | 0.778 | 0.774 | 0.893 | 0.666 | 0.674 | 0.403 | 0.478 | 0.428 | 0.36 | 0.376 |  |
| NCI-H1437 | 1.07 | 0.888 | 1.04 | 0.885 | 1.21 | 1.06 | 1.17 | 1.22 | 1.1 | 0.486 | 0.42 | 0.428 | 0.408 | 0.391 | 0.371 | 0.493 | 0.404 | 0.306 | 0.342 | 0.882 |
| NCI-H1651 | 0.9 | 0.963 | 0.931 | 0.886 | 0.809 | 0.893 | 0.919 | 0.744 | 0.804 | 0.785 | 0.601 | 0.591 | 0.429 | 0.693 | 0.361 | 0.534 | 0.528 | 0.341 | 0.544 | 0.736 |
| NCI-H1666 | 1.08 | 0.876 | 1.01 | 0.927 | 1.04 | 1.03 | 1.01 | 0.961 | 1.06 | 0.603 | 0.616 | 0.611 | 0.503 | 0.563 | 0.785 | 0.79 | 0.872 | 0.708 | 0.877 |  |
